Test results from the NIST ThermoML archive (doi:10.1021/acs.jced.9b00511).

Experiments:
[1] = Wilhelmy Plate
[2] = wn = mass fraction of the nth substance listed; details: Wilhelmy Plate

CC(O)CN(C)C (stereo not given) [1-(dimethylamino)-2-propanol]
[1]
Details	surface tension liquid-gas [mN/m]
303.2 K	24
308.2 K	23.2
313.2 K	22.6
318.2 K	22
323.2 K	21.3

CC(O)CN(C)C (stereo not given) [1-(dimethylamino)-2-propanol] + O
surface tension liquid-gas [mN/m], [2]
Details	303.2 K	308.2 K	313.2 K	318.2 K	323.2 K
w1 = 0.3	36.2	35.4	34.6	33.9	33.2
w1 = 0.4	33.5	32.7	32.1	31.5	30.9
w1 = 0.5	31.5	31	30.2	29.6	29.1
w1 = 1	24	23.2	22.6	22	21.3

CCCCn1cc[n+](C)c1.NCCCC[C@H](N)C(=O)[O-] [1-butyl-3-methylimidazolium L-lysinate]
[1]
Details	surface tension liquid-gas [mN/m]
303.2 K	45.9
308.2 K	45.5
313.2 K	45.1
318.2 K	44.7
323.2 K	44.2

CCCCn1cc[n+](C)c1.NCCCC[C@H](N)C(=O)[O-] [1-butyl-3-methylimidazolium L-lysinate] + O
surface tension liquid-gas [mN/m], [2]
Details	w1 = 0.025	w1 = 0.05	w1 = 0.075	w1 = 0.1	w1 = 0.15	w1 = 0.2	w1 = 0.4	w1 = 0.6	w1 = 0.8	w1 = 1
303.2 K	62.5	59.9	57.3	55.1	52.5	50.1	48.4	47.1	46.4	45.9
308.2 K	59.8	57.7	55.2	53.3	50.9	49.1	47.6	46.4	45.9	45.5
313.2 K	57.3	55.5	53.2	51.5	49.3	48.1	46.8	45.7	45.5	45.1
318.2 K	54.3	52.5	50.8	49.4	47.7	46.8	45.9	45.3	45	44.7
323.2 K	51.1	49.6	48.5	47.3	46.2	45.5	45.1	44.9	44.6	44.2

CCCCn1cc[n+](C)c1.NCC(=O)[O-] [1-butyl-3-methylimidazolium glycinate]
[1]
Details	surface tension liquid-gas [mN/m]
303.2 K	42.9
308.2 K	42.6
313.2 K	42.4
318.2 K	42.1
323.2 K	41.7

CCCCn1cc[n+](C)c1.NCC(=O)[O-] [1-butyl-3-methylimidazolium glycinate] + O
surface tension liquid-gas [mN/m], [2]
Details	w1 = 0.025	w1 = 0.05	w1 = 0.075	w1 = 0.1	w1 = 0.15	w1 = 0.2	w1 = 0.4	w1 = 0.6	w1 = 0.8	w1 = 1
303.2 K	59.4	56.7	53.6	50.7	48.3	46.8	46	45.5	44.7	42.9
308.2 K	56.8	54.3	51.6	49.2	47.3	45.9	45.3	44.9	44.1	42.6
313.2 K	54.1	51.9	49.5	47.7	46.2	45	44.6	44.3	43.5	42.4
318.2 K	51.5	49.6	47.8	46.4	45.1	44.2	43.8	43.4	42.8	42.1
323.2 K	48.9	47.3	46.1	45.1	44	43.4	43	42.6	42.1	41.7

C[N+](C)(C)C.NCC(=O)[O-] [tetramethylammonium glycinate]
[1]
Details	surface tension liquid-gas [mN/m]
303.2 K	56.2
308.2 K	55.6
313.2 K	55.1
318.2 K	54.5
323.2 K	53.9

C[N+](C)(C)C.NCC(=O)[O-] [tetramethylammonium glycinate] + O
surface tension liquid-gas [mN/m], [2]
Details	w1 = 0.025	w1 = 0.05	w1 = 0.075	w1 = 0.1	w1 = 0.15	w1 = 0.2	w1 = 0.4	w1 = 0.6	w1 = 0.8	w1 = 1
303.2 K	67.8	65.4	64.1	62.7	61.6	60.2	58.5	57.6	56.9	56.2
308.2 K	66.6	64.3	62.9	61.6	60.6	59.5	57.8	56.9	56.3	55.6
313.2 K	65.4	63.3	62.2	60.6	59.7	58.8	57.1	56.2	55.8	55.1
318.2 K	64.3	62.5	61	59.8	58.9	58.1	56.5	55.8	55.2	54.5
323.2 K	62.3	61.1	60	58.7	57.9	57.1	56	55.4	54.6	53.9
